Laboratory results published in US8901118B2, “Compounds and methods for kinase modulation, and indications therefor” (Plexxikon Inc., priority 2010, dated 2014).

Legend:
[1] = molecular target: Fms kinase (Homo sapiens, UniProt P07333); assay: Fms kinase biochemical activity assay (AlphaScreen, biotin-(E4Y)10 phosphorylation); details: 100 μM ATP; read-out: Biochemical Inhibition IC50 Fms
Procedure, shortened: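 Fms kinase (1 ng/well) phosphorylating 30 nM biotin-(E4Y)10 with 100 μM ATP in 25 mM Hepes pH 7.5, MgCl2/MnCl2, 5% DMSO, 20 min at 30 °C. Phosphotyrosine detected by AlphaScreen streptavidin donor and PY20 acceptor beads; IC50 from signal versus compound concentration.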

[2] = molecular target: T1, BCR-NTRK2 BaF3 cells (Homo sapiens, UniProt Q16620); assay: BaF3 BCR-NTRK2 cell proliferation assay (ATPlite); assay type: cell-based; details: read-out: Inhibition of Cell Proliferation IC50, BCR/BaF3 TrkB
T1 construct: fused on or other part: P11274 (Breakpoint cluster region protein)
Procedure, shortened: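 BaF3 lines were seeded at 10,000 cells/well in growth medium with 1 mg/mL G418 but no IL-3, and MV-4-11 cells at 25,000 cells/well; plates were left overnight at 37 °C. Compounds were added as an 8-point 1:3 series with a top concentration of 10 μM and incubated 3 days. IC50 was taken from ATPlite luminescence.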

Sequence of Fms kinase (P07333 20-972): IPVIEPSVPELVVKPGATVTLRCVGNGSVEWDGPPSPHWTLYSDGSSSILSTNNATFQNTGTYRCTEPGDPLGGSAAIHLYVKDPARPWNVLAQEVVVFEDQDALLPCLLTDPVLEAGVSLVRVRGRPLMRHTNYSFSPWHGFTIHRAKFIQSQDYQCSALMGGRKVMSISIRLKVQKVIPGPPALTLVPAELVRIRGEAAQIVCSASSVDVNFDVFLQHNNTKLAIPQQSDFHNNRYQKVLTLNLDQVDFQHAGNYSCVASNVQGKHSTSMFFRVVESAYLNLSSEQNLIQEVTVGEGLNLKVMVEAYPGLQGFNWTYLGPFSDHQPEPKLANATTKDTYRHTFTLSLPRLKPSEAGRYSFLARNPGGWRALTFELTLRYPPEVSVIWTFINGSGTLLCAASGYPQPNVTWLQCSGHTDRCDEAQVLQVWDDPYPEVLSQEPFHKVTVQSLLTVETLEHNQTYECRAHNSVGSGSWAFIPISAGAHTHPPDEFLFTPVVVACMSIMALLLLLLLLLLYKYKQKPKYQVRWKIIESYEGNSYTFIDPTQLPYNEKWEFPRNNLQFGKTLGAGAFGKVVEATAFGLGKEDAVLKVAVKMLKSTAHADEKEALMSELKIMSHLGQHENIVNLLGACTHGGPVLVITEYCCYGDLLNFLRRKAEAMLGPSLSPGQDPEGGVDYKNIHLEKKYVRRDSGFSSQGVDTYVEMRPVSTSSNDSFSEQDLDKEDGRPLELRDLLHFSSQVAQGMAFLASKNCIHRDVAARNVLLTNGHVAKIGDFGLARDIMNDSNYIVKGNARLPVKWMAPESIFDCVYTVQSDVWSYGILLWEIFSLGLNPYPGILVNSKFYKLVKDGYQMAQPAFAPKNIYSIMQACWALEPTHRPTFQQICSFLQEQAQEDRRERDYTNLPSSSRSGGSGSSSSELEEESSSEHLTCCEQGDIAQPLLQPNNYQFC
T1 sequence (Q16620 538-807): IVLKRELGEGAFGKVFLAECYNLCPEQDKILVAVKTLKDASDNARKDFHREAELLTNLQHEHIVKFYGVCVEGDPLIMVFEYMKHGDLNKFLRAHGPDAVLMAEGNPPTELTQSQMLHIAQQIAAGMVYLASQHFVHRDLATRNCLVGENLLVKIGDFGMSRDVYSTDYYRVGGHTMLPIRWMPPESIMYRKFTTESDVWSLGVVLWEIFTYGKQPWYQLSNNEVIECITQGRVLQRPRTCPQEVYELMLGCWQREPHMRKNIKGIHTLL

Row | IC50 [1] | IC50 [2] | SMILES
1 | < 100 nM | > 10000 nM | Clc1cnc2[nH]cc(Cc3cnc(NC4CCCCC4)nc3)c2c1 [Compound P-3001, [5-(5-chloro-1H-pyrrolo[2,3-b]pyridin-3-ylmethyl)-pyrimidin-2-yl]-cyclohexyl-amine]
2 | < 10 nM | < 1000 nM | CCn1cc(Nc2ccc(Cc3c[nH]c4ncnc(OC)c34)c(F)n2)cn1 [Compound P-4011, (1-Ethyl-1H-pyrazol-4-yl)-[6-fluoro-5-(4-methoxy-7H-pyrrolo[2,3-d]pyrimidin-5-ylmethyl)-pyridin-2-yl]-amine]
3 | < 100 nM | < 10 nM | Cc1cnc2[nH]cc(Cc3cnc(Nc4ccc(C(C)(C)C)cc4)nc3)c2c1 [Compound P-3030, (4-tert-Butyl-phenyl)-[5-(5-methyl-1H-pyrrolo[2,3-b]pyridin-3-ylmethyl)-pyrimidin-2-yl]-amine amine]
4 | < 10 nM | < 100 nM | COc1ccc(Nc2ncc(Cc3c[nH]c4ncc(C)cc34)cn2)cc1 [Compound P-3021, (4-Methoxy-phenyl)-[5-(5-methyl-1H-pyrrolo[2,3-b]pyridin-3-ylmethyl)-pyrimidin-2-yl]-amine]
5 | < 10 nM | < 100 nM | COc1ccc(Nc2ncc(Cc3c[nH]c4ncc(C)cc34)cn2)cn1 [Compound P-3020, (6-Methoxy-pyridin-3-yl)-[5-(5-methyl-1H-pyrrolo[2,3-b]pyridin-3-ylmethyl)-pyrimidin-2-yl]-amine]
6 | < 100 nM | < 10 nM | COc1ccc(Nc2ccc(C(=O)c3c[nH]c4ncnc(C5CC5)c34)c(F)n2)cn1 [Compound P-4022, (4-cyclopropyl-7H-pyrrolo[2,3-d]pyrimidin-5-yl)-[2-fluoro-6-(6-methoxy-pyridin-3-ylamino)-pyridin-3-yl]-methanone]
7 | < 10 nM | < 100 nM | CCOc1ncnc2[nH]cc(Cc3ccc(Nc4ccc(Br)nc4)nc3F)c12 [Compound P-4020, (6-Bromo-pyridin-3-yl)-[5-(4-ethoxy-7H-pyrrolo[2,3-d]pyrimidin-5-ylmethyl)-6-fluoro-pyridin-2-yl]-amine]
8 | < 10 nM | < 100 nM | Cc1ccc(Nc2ccc(Cc3c[nH]c4ncc(Cl)cc34)c(F)n2)cn1 [Compound P-3042, [5-(5-Chloro-1H-pyrrolo[2,3-b]pyridin-3-ylmethyl)-6-fluoro-pyridin-2-yl]-(6-methyl-pyridin-3-yl)-amine]
9 | < 100 nM | < 10 nM | Cc1ccc(Nc2ccc(C(=O)c3c[nH]c4ncnc(C5CC5)c34)c(F)n2)cn1 [Compound P-4031, (4-Cyclopropyl-7H-pyrrolo[2,3-d]pyrimidin-5-yl)-[2-fluoro-6-(6-methyl-pyridin-3-ylamino)-pyridin-3-yl]-methanone]
10 | < 10 nM | < 100 nM | Cc1cnc2[nH]cc(Cc3cnc(Nc4ccc(C(F)(F)F)nc4)nc3)c2c1 [Compound P-3018, [5-(5-Methyl-1H-pyrrolo[2,3-b]pyridin-3-ylmethyl)-pyrimidin-2-yl]-(6-trifluoromethyl-pyridin-3-yl)-amine]
11 | < 100 nM | < 1000 nM | CCCOc1ccc(Nc2ncc(Cc3c[nH]c4ncc(C)cc34)cn2)cc1 [Compound P-3024, [5-(5-Methyl-1H-pyrrolo[2,3-b]pyridin-3-ylmethyl)-pyrimidin-2-yl]-(4-propoxy-phenyl)-amine]
12 | < 1000 nM | < 1000 nM | CCn1ccc(Nc2ncc(Cc3c[nH]c4ncc(C)cc34)cn2)n1 [Compound P-3035, (1-Ethyl-1H-pyrazol-3-yl)-[5-(5-methyl-1H-pyrrolo[2,3-b]pyridin-3-ylmethyl)-pyrimidin-2-yl]-amine]
13 | < 10 nM | < 1000 nM | CCOc1ccc(Nc2ccc(Cc3c[nH]c4ncc(C)cc34)c(F)n2)cn1 [Compound P-3039, (6-ethoxy-pyridin-3-yl)-[6-fluoro-5-(5-methyl-1H-pyrrolo[2,3-b]pyridin-3-ylmethyl)-pyridin-2-yl]-amine]
14 | < 10 nM | < 100 nM | CCOc1ccc(Nc2ccc(Cc3c[nH]c4ncnc(OCCOC)c34)c(F)n2)cn1 [Compound P-4008, (6-Ethoxy-pyridin-3-yl)-{6-fluoro-5-[4-(2-methoxy-ethoxy)-7H-pyrrolo[2,3-d]pyrimidin-5-ylmethyl]-pyridin-2-yl}-amine]
15 | < 100 nM | – | Cc1cnc2[nH]cc(Cc3ccc(Nc4ccc(C5CC5)nc4)nc3F)c2c1 [Compound P-3050, (6-Cyclopropyl-pyridin-3-yl)-[6-fluoro-5-(5-methyl-1H-pyrrolo[2,3-b]pyridin-3-ylmethyl)-pyridin-2-yl]-amine]
16 | < 10 nM | < 100 nM | Cc1ccc(Nc2ccc(C(=O)c3c[nH]c4ncc(Cl)cc34)c(F)n2)cn1 [Compound P-3044, (5-Chloro-1H-pyrrolo[2,3-b]pyridin-3-yl)-[2-fluoro-6-(6-methyl-pyridin-3-ylamino)-pyridin-3-yl]-methanone]

Row | IC50 [1] | IC50 [2] | SMILES
17 | < 100 nM | < 10 nM | COc1ccc(Nc2ccc(C(=O)c3c[nH]c4ncc(C)cc34)c(F)n2)cn1 [Compound P-3040, [2-Fluoro-6-(6-methoxy-pyridin-3-ylamino)-pyridin-3-yl]-(5-methyl-1H-pyrrolo[2,3-b]pyridin-3-yl)-methanone]
18 | < 10 nM | < 10 nM | CCc1ccc(Nc2ccc(C(=O)c3c[nH]c4ncnc(C5CC5)c34)c(F)n2)cn1 [Compound P-4029, (4-Cyclopropyl-7H-pyrrolo[2,3-d]pyrimidin-5-yl)-[6-(6-ethyl-pyridin-3-ylamino)-2-fluoro-pyridin-3-yl]-methanone]
19 | < 10 nM | > 10000 nM | Clc1cnc2[nH]cc(Cc3cnc(NC4CCCCCC4)nc3)c2c1 [Compound P-3006, [5-(5-Chloro-1H-pyrrolo[2,3-b]pyridin-3-ylmethyl)-pyrimidin-2-yl]-cycloheptyl-amine]
20 | < 10 nM | < 100 nM | COc1ccc(Nc2ccc(Cc3c[nH]c4ncc(C)cc34)c(F)n2)cn1 [Compound P-3019, [6-fluoro-5-(5-methyl-1H-pyrrolo[2,3-b]pyridin-3-ylmethyl)-pyridin-2-yl]-(6-methoxy-pyridin-3-yl)-amine]
21 | < 100 nM | < 1000 nM | COCCOc1ncnc2[nH]cc(Cc3ccc(Nc4ccc(C)nc4)nc3F)c12 [Compound P-4015, {6-Fluoro-5-[4-(2-methoxy-ethoxy)-7H-pyrrolo[2,3-d]pyrimidin-5-ylmethyl]-pyridin-2-yl}-(6-methyl-pyridin-3-yl)-amine]
22 | < 100 nM | < 1000 nM | Cc1cnc2[nH]cc(Cc3cnc(Nc4ccc(S(C)(=O)=O)cc4)nc3)c2c1 [Compound P-3034, (4-Methanesulfonyl-phenyl)-[5-(5-methyl-1H-pyrrolo[2,3-b]pyridin-3-ylmethyl)-pyrimidin-2-yl]-amine]
23 | < 10 nM | < 1000 nM | CCn1cc(Nc2ccc(Cc3c[nH]c4ncnc(C)c34)c(F)n2)cn1 [Compound P-4013, (1-Ethyl-1H-pyrazol-4-yl)-[6-fluoro-5-(4-methyl-7H-pyrrolo[2,3-d]pyrimidin-5-ylmethyl)-pyridin-2-yl]-amine]
24 | < 10 nM | < 100 nM | CCn1cc(Nc2ccc(Cc3c[nH]c4ncnc(C5CC5)c34)c(F)n2)cn1 [Compound P-4036, [5-(4-Cyclopropyl-7H-pyrrolo[2,3-d]pyrimidin-5-ylmethyl)-6-fluoro-pyridin-2-yl]-(1-ethyl-1H-pyrazol-4-yl)-amine]
25 | < 10 nM | < 1000 nM | CCn1cc(Nc2ncc(Cc3c[nH]c4ncc(C)cc34)cn2)cn1 [Compound P-3036, (1-Ethyl-1H-pyrazol-4-yl)-[5-(5-methyl-1H-pyrrolo[2,3-b]pyridin-3-ylmethyl)-pyrimidin-2-yl]-amine]
26 | < 100 nM | – | CCn1cc(Nc2ccc(C(=O)c3c[nH]c4ncnc(C5CC5)c34)c(F)n2)cn1 [Compound P-4037, (4-Cyclopropyl-7H-pyrrolo[2,3-d]pyrimidin-5-yl)-[6-(1-ethyl-1H-pyrazol-4-ylamino)-2-fluoro-pyridin-3-yl]-methanone]
27 | < 1000 nM | – | Clc1cnc2[nH]cc(Cc3cnc(NC4CCCC4)nc3)c2c1 [Compound P-3003, [5-(5-Chloro-1H-pyrrolo[2,3-b]pyridin-3-ylmethyl)-pyrimidin-2-yl]-cyclopentyl-amine]
28 | < 10 nM | – | CCc1ccc(Nc2ccc(Cc3c[nH]c4ncc(C)cc34)c(F)n2)cn1 [Compound P-3048, (6-Ethyl-pyridin-3-yl)-[6-fluoro-5-(5-methyl-1H-pyrrolo[2,3-b]pyridin-3-ylmethyl)-pyridin-2-yl]-amine]
29 | < 10 nM | – | Fc1nc(Nc2ccc(C3CC3)nc2)ccc1Cc1c[nH]c2ncccc12 [Compound P-3053, (6-Cyclopropyl-pyridin-3-yl)-[6-fluoro-5-(1H-pyrrolo[2,3-b]pyridin-3-ylmethyl)-pyridin-2-yl]-amine]
30 | < 10 nM | – | Cc1cnc2[nH]cc(C(=O)c3ccc(Nc4ccc(C5CC5)nc4)nc3F)c2c1 [Compound P-3051, [6-(6-Cyclopropyl-pyridin-3-ylamino)-2-fluoro-pyridin-3-yl]-(5-methyl-1H-pyrrolo[2,3-b]pyridin-3-yl)-methanone]
31 | < 10 nM | – | CCc1ccc(Nc2ccc(C(=O)c3c[nH]c4ncc(C)cc34)c(F)n2)cn1 [Compound P-3049, [6-(6-Ethyl-pyridin-3-ylamino)-2-fluoro-pyridin-3-yl]-(5-methyl-1H-pyrrolo[2,3-b]pyridin-3-yl)-methanone]
32 | < 100 nM | – | O=C(c1ccc(Nc2ccc(C3CC3)nc2)nc1F)c1c[nH]c2ncccc12 [Compound P-3052, [6-(6-Cyclopropyl-pyridin-3-ylamino)-2-fluoro-pyridin-3-yl]-(1H-pyrrolo[2,3-b]pyridin-3-yl)-methanone]
